The test system of assay [1] is ovalbumin-sensitized mice. Briefly: Prevention of airway hyperreactivity development, anti-inflammatory dosing paradigm (Penh). Format: in vivo, mouse. Particulars: intratracheal, once a day, days 27 to 30 (1.091) or 27 to 31.
For the next assay, the target named is T1, GCK (Homo sapiens, UniProt Q12851).
T1 construct: purchased Upstate, Millipore Bioscience Division (KinaseProfiler service)
T1 sequence (Q12851 1-820): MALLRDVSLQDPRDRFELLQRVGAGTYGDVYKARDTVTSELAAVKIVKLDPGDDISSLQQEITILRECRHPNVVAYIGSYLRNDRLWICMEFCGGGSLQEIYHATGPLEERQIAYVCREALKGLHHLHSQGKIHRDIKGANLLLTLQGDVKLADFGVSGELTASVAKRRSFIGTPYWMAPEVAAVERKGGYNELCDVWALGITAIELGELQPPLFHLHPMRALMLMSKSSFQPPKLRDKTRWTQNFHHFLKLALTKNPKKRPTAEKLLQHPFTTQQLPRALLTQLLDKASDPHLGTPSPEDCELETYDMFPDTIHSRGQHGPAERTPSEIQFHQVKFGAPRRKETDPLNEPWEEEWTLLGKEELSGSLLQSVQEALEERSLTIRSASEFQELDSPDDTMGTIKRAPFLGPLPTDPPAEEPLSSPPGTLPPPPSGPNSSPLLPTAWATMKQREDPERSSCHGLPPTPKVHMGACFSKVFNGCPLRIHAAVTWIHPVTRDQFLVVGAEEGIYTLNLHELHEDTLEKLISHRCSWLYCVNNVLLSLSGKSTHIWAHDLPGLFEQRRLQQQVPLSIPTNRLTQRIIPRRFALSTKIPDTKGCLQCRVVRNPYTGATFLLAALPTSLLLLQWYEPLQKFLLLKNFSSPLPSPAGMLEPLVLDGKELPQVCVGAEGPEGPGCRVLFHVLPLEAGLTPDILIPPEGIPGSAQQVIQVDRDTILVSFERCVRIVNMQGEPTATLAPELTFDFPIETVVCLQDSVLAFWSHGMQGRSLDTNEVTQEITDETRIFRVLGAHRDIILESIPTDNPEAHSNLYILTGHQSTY
Briefly: Kinase panel screen, GCK. As to conditions: 1 μM test compound, 10 μM ATP. Type of assay: biochemical. The protocol:
(§1) Compounds of Formulae I and II were examined for activity against a selected panel of kinases using the KinaseProfiler™ enzyme profiling services (Upstate, Millipore Bioscience Division). Percent kinase activity at 10 μM and 1 μM test compound and 10 μM ATP was determined against 40 wild-type recombinant human kinases according to Upstate's standard protocol: ASK1, BTK, CSK, c-RAF, GCK, GSK3β, IKKα, IKKβ, IRAK1, IRAK4, JNK1α1, JNK2α2, JNK3, ERK1, ERK2, MAPKAP-K2, MAPKAP-K3, MEK1, MKK4, MKK6, MKK7β, Mnk2, MSK1, PAK3, PDK1, PRAK, ROCK1, Rsk2, SAPK2a, SAPK2b, SAPK3, SAPK4, SRPK1, SRPK2, Syk, TAK1, TBK1, PI3-Kβ, PI3-Kγ, PI3-Kδ.

The target in the next assay is T2, Mnk2 (Homo sapiens, UniProt Q9HBH9).
T2 construct: purchased Upstate, Millipore Bioscience Division (KinaseProfiler service)
T2 sequence (Q9HBH9 whole entry): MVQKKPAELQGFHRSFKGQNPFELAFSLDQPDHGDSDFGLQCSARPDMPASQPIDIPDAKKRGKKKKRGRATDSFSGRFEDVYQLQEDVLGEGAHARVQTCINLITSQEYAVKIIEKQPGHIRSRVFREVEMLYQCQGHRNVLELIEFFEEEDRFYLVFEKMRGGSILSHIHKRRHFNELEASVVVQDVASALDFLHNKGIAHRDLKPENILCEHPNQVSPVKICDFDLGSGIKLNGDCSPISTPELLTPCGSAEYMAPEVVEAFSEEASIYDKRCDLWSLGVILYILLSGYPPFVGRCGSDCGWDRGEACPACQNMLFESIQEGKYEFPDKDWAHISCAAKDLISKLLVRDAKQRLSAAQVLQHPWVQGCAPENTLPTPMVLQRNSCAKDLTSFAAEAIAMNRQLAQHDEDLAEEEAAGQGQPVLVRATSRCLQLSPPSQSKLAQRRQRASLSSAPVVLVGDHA
The experiment in a line: Kinase panel screen, Mnk2. Type of assay: biochemical. As to conditions: 10 μM ATP. The protocol:
as §1

The target in the next assay is T3, IRAK1 (Homo sapiens, UniProt P51617).
T3 construct: purchased Upstate, Millipore Bioscience Division (KinaseProfiler service)
T3 sequence (P51617 whole entry): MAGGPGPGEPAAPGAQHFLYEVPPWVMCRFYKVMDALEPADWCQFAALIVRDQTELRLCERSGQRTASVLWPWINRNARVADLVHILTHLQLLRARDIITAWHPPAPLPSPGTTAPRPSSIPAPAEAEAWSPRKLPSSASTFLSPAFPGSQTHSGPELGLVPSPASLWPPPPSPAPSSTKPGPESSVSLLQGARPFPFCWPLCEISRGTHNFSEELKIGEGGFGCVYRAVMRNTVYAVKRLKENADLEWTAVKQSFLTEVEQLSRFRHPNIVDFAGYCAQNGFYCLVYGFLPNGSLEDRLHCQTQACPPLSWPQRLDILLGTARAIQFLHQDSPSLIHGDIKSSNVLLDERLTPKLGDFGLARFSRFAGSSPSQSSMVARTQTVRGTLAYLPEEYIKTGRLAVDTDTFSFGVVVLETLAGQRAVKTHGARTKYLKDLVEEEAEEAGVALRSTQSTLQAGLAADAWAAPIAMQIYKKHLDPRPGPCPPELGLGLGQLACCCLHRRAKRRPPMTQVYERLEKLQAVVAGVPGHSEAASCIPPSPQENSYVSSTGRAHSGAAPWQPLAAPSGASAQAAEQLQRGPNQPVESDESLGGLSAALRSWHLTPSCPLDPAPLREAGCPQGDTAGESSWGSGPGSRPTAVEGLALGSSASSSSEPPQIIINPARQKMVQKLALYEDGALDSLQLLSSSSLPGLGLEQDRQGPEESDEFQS
The experiment in a line: Kinase panel screen, IRAK1. Format: biochemical. Particulars: 10 μM ATP. The procedure:
as §1

Another assay has as its system LPS-challenged mice. The experiment in a line: LPS-induced neutrophilia and cytokine production assay. Particulars: intratracheal administration, LPS-challenged mice. Type of assay: in vivo, mouse.
The target in another assay is T4, IRAK4 (Homo sapiens, UniProt Q9NWZ3).
T4 construct: purchased Upstate, Millipore Bioscience Division (KinaseProfiler service)
T4 sequence (Q9NWZ3 1-460): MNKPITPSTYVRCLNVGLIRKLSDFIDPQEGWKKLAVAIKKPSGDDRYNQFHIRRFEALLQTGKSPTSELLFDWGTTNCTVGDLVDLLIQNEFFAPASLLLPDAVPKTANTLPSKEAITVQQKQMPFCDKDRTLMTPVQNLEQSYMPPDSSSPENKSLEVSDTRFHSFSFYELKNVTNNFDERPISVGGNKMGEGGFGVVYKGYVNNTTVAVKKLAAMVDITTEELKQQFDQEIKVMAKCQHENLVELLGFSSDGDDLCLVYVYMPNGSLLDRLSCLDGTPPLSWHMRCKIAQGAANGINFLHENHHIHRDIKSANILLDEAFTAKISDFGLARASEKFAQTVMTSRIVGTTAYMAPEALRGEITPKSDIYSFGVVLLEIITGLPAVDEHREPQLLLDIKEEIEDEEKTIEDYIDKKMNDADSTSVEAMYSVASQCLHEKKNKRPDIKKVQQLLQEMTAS
Briefly: Kinase panel screen, IRAK4. Format: biochemical. Particulars: 10 μM ATP. The procedure:
as §1

Experimental for LPS-challenged mice: Male BALB/c mice, approximately 19 to 21 grams, were ordered from Charles River Laboratories (Raleigh, N.C.). All animals were challenged with aerosolized LPS (10 μg/ml) for 25 minutes on study day 0. LPS aerosol was generated using an Aerogen Aeroneb nebulizer and controller providing a flow of 400 μl/min and a particle size of 2-4 μm MMAD. Rolipram was administered i.p at 20 mg/kg. […] Four hours following LPS challenge, BALF was collected using a total of 3 ml of 0.9% sodium chloride containing 10% fetal calf serum. Total cell counts were determined using the Coulter Counter. For differential evaluations, BALF was centrifuged and cytospin slides prepared and stained with Hema3 stain. Manual leukocyte counts were then completed on 200 cells. The final concentration of individual leukocyte cell types per ml of BALF was determined by multiplication of the relative percentage of individual leukocytes with the total amount of cells/ml of BALF fluid. The concentration of IL-1β in the BALF samples was determined using commercially available Bio-plex kits (Bio-Rad). The analysis of cytokine levels was measured using the Bio-Plex 200 (Bio-Rad) system according to the manufacturer's instructions.

Consider `OCCn1ccc2cc(CN3CC[C@@H](Nc4cccc5cnccc45)C3)ccc21` [Compound 2.066], for which the “Prevention of airway hyperreactivity” value in assay [1] is listed as “prevention of airway hyperreactivity”. The molecule also returned a percent inhibition at 1 µM on GCK of 39%. In addition, the “Percent inhibition, Mnk2” value is on record as 99% at Mnk2 (1 μM test compound) and 54% at Mnk2 (10 μM test compound). Moreover, the “Percent inhibition, IRAK1” value is on record as 74% on IRAK1 (1 μM test compound) and 32% at IRAK1 (10 μM test compound).
Regarding `NC(=O)Cn1ccc2cc(CN3CC[C@@H](Nc4cccc5cnccc45)C3)ccc21` [Compound 2.059], in assay [1], the “Prevention of airway hyperreactivity” value is listed as “prevention of airway hyperreactivity”. For the same molecule, the “IL-1β levels in BALF” value in the assay with LPS-challenged mice is “reduction”. This molecule yielded a percent inhibition at 1 µM at GCK of 75%. Also, the entries for the “Percent inhibition, Mnk2” value at Mnk2 (1 μM test compound) and at Mnk2 (10 μM test compound) were 49% and 12%, respectively. The results for the “Percent inhibition, IRAK1” value on IRAK1 (1 μM test compound) and at IRAK1 (10 μM test compound) were 87% and 30%, respectively. In addition, the “Percent inhibition, IRAK4” value on IRAK4 (1 μM test compound) is 63%; at IRAK4 (10 μM test compound), 22%.
Turning to `Cc1ccc(CN2CCC[C@@H](Nc3ccc4[nH]ncc4c3)C2)cc1OCCO` [Compound 1.161], the “Prevention of airway hyperreactivity” value in assay [1] was “prevention of airway hyperreactivity”. Also, the percent inhibition at 1 µM at GCK was determined as 96%. Further, the “Percent inhibition, Mnk2” value worked out at 108% at Mnk2 (1 μM test compound) and 106% at Mnk2 (10 μM test compound). For the same molecule, the “Percent inhibition, IRAK1” value was 106% at IRAK1 (1 μM test compound) and 99% on IRAK1 (10 μM test compound). The “Percent inhibition, IRAK4” value at IRAK4 (1 μM test compound) came to 96%; on IRAK4 (10 μM test compound), 109%.
With `NC(=O)Cn1ccc2cc(CN3CCC[C@@H](Nc4ccc5[nH]ncc5c4)C3)ccc21` [Compound 1.162], the percent inhibition at 1 µM at GCK worked out at 93%. Besides, the “Percent inhibition, Mnk2” value on Mnk2 (1 μM test compound) was 111%; on Mnk2 (10 μM test compound) it was 65%. Further, the results for the “Percent inhibition, IRAK1” value at IRAK1 (1 μM test compound) and on IRAK1 (10 μM test compound) were 100% and 97%, respectively. The “Percent inhibition, IRAK4” value on IRAK4 (1 μM test compound) came out at 105%; at IRAK4 (10 μM test compound), 88%.

The record behind these values is US8299096B2, “Method for treating pulmonary diseases using rho kinase inhibitor compounds” (priority 2008, dated 2012).
